Reference: PubChem BioAssay (NCI)
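Dose response: 5 concentrations. Exposure: 48 h. Format: 96-well plates. Endpoint: linear interpolation; highest concentration if not reached. TGI denotes the concentration required for complete inhibition of growth.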

Experiments:
Assay in all cases: NCI anticancer screen, dose series, 48 h
UO-31 renal = system: UO-31 renal
SNB-75 CNS = system: SNB-75 CNS
SNB-78 CNS = system: SNB-78 CNS
SN12C renal = system: SN12C renal
M14 melanoma = system: M14 melanoma
KM20L2 colon = system: KM20L2 colon
SNB-19 CNS = system: SNB-19 CNS
ACHN renal = system: ACHN renal
NCI-H23 lung = system: NCI-H23 lung
HCT-116 colon = system: HCT-116 colon
SF-295 CNS = system: SF-295 CNS
COLO 205 colon = system: COLO 205 colon
SW-620 colon = system: SW-620 colon
NCI-H460 lung = system: NCI-H460 lung
DMS 273 small cell lung = system: DMS 273 small cell lung
SR leukemia = system: SR leukemia
CCRF-CEM leukemia = system: CCRF-CEM leukemia
IGROV1 ovarian = system: IGROV1 ovarian
U251 CNS = system: U251 CNS
OVCAR-3 ovarian = system: OVCAR-3 ovarian
SF-268 CNS = system: SF-268 CNS
SK-MEL-2 melanoma = system: SK-MEL-2 melanoma
RPMI-8226 leukemia = system: RPMI-8226 leukemia
OVCAR-5 ovarian = system: OVCAR-5 ovarian
EKVX NSCLC = system: EKVX NSCLC
K-562 leukemia = system: K-562 leukemia
NCI-H522 lung = system: NCI-H522 lung
UACC-257 melanoma = system: UACC-257 melanoma
DLD-1 colon = system: DLD-1 colon
OVCAR-4 ovarian = system: OVCAR-4 ovarian
MOLT-4 leukemia = system: MOLT-4 leukemia
TK-10 renal = system: TK-10 renal
A498 renal = system: A498 renal
HCT-15 colon = system: HCT-15 colon
SK-MEL-5 melanoma = system: SK-MEL-5 melanoma
SK-OV-3 ovarian = system: SK-OV-3 ovarian
HOP-62 NSCLC = system: HOP-62 NSCLC
UACC-62 melanoma = system: UACC-62 melanoma
OVCAR-8 ovarian = system: OVCAR-8 ovarian
SF-539 CNS = system: SF-539 CNS
NCI-H226 lung = system: NCI-H226 lung
RXF 393 renal = system: RXF 393 renal
786-0 renal = system: 786-0 renal
CAKI-1 renal = system: CAKI-1 renal
A549 NSCLC = system: A549 NSCLC
SK-MEL-28 melanoma = system: SK-MEL-28 melanoma
M19-MEL melanoma = system: M19-MEL melanoma
LOX IMVI melanoma = system: LOX IMVI melanoma
HT29 colon = system: HT29 colon
DMS 114 small cell lung = system: DMS 114 small cell lung
XF 498 CNS = system: XF 498 CNS
LXFL 529 NSCLC = system: LXFL 529 NSCLC
KM12 colon = system: KM12 colon
MALME-3M melanoma = system: MALME-3M melanoma
HL-60(TB) leukemia = system: HL-60(TB) leukemia
HCC-2998 colon = system: HCC-2998 colon
HOP-92 NSCLC = system: HOP-92 NSCLC

Compound: N#CC(/C(=N/N=C(N)N)C(=O)Nc1ccccc1[N+](=O)[O-])c1nc(-c2ccc([N+](=O)[O-])cc2)cs1 (stereo unspecified)
- TGI (UO-31 renal): > 100 µM
- TGI (SNB-75 CNS): > 100 µM
- TGI (SNB-78 CNS): > 100 µM
- TGI (SN12C renal): > 100 µM
- TGI (M14 melanoma): > 100 µM
- TGI (KM20L2 colon): > 100 µM
- TGI (SNB-19 CNS): > 100 µM
- TGI (ACHN renal): > 100 µM
- TGI (NCI-H23 lung): > 100 µM
- TGI (HCT-116 colon): > 100 µM
- TGI (SF-295 CNS): > 100 µM
- TGI (COLO 205 colon): > 100 µM
- TGI (SW-620 colon): > 100 µM
- TGI (NCI-H460 lung): > 100 µM
- TGI (DMS 273 small cell lung): > 100 µM
- TGI (SR leukemia): > 100 µM
- TGI (CCRF-CEM leukemia): > 100 µM
- TGI (IGROV1 ovarian): > 100 µM
- TGI (U251 CNS): > 100 µM
- TGI (OVCAR-3 ovarian): > 100 µM
- TGI (SF-268 CNS): > 100 µM
- TGI (SK-MEL-2 melanoma): > 100 µM
- TGI (RPMI-8226 leukemia): > 100 µM
- TGI (OVCAR-5 ovarian): > 100 µM
- TGI (EKVX NSCLC): > 100 µM
- TGI (K-562 leukemia): > 100 µM
- TGI (NCI-H522 lung): > 100 µM
- TGI (UACC-257 melanoma): > 100 µM
- TGI (DLD-1 colon): > 100 µM
- TGI (OVCAR-4 ovarian): > 100 µM
- TGI (MOLT-4 leukemia): > 100 µM
- TGI (TK-10 renal): > 100 µM
- TGI (A498 renal): > 100 µM
- TGI (HCT-15 colon): > 100 µM
- TGI (SK-MEL-5 melanoma): > 100 µM
- TGI (SK-OV-3 ovarian): > 100 µM
- TGI (HOP-62 NSCLC): > 100 µM
- TGI (UACC-62 melanoma): > 100 µM
- TGI (OVCAR-8 ovarian): > 100 µM
- TGI (SF-539 CNS): > 100 µM
- TGI (NCI-H226 lung): > 100 µM
- TGI (RXF 393 renal): > 100 µM
- TGI (786-0 renal): > 100 µM
- TGI (CAKI-1 renal): > 100 µM
- TGI (A549 NSCLC): > 100 µM
- TGI (SK-MEL-28 melanoma): > 100 µM
- TGI (M19-MEL melanoma): > 100 µM
- TGI (LOX IMVI melanoma): > 100 µM
- TGI (HT29 colon): > 100 µM
- TGI (DMS 114 small cell lung): > 100 µM
- TGI (XF 498 CNS): > 100 µM
- TGI (LXFL 529 NSCLC): > 100 µM
- TGI (KM12 colon): > 100 µM
- TGI (MALME-3M melanoma): > 100 µM
- TGI (HL-60(TB) leukemia): > 100 µM
- TGI (HCC-2998 colon): > 100 µM

Compound: CCOC(=O)C1N(S(=O)(=O)c2ccc(C)cc2)CCC12c1ccccc1NC2c1ccc(OC)c(OC)c1 (stereo unspecified)
- TGI (UO-31 renal): > 100 µM
- TGI (SNB-75 CNS): > 100 µM
- TGI (SNB-78 CNS): > 100 µM
- TGI (SN12C renal): > 100 µM
- TGI (M14 melanoma): > 100 µM
- TGI (KM20L2 colon): > 100 µM
- TGI (SNB-19 CNS): > 100 µM
- TGI (ACHN renal): > 100 µM
- TGI (NCI-H23 lung): > 100 µM
- TGI (HCT-116 colon): > 100 µM
- TGI (SF-295 CNS): > 100 µM
- TGI (COLO 205 colon): > 100 µM
- TGI (SW-620 colon): > 100 µM
- TGI (NCI-H460 lung): > 100 µM
- TGI (DMS 273 small cell lung): > 100 µM
- TGI (SR leukemia): > 100 µM
- TGI (CCRF-CEM leukemia): > 100 µM
- TGI (IGROV1 ovarian): 34 µM
- TGI (U251 CNS): > 100 µM
- TGI (OVCAR-3 ovarian): > 100 µM
- TGI (SF-268 CNS): > 100 µM
- TGI (RPMI-8226 leukemia): > 100 µM
- TGI (OVCAR-5 ovarian): > 100 µM
- TGI (EKVX NSCLC): > 100 µM
- TGI (K-562 leukemia): > 100 µM
- TGI (NCI-H522 lung): > 100 µM
- TGI (UACC-257 melanoma): > 100 µM
- TGI (DLD-1 colon): > 100 µM
- TGI (OVCAR-4 ovarian): > 100 µM
- TGI (TK-10 renal): > 100 µM
- TGI (A498 renal): > 100 µM
- TGI (HCT-15 colon): > 100 µM
- TGI (SK-MEL-5 melanoma): > 100 µM
- TGI (SK-OV-3 ovarian): > 100 µM
- TGI (HOP-92 NSCLC): 24.4 µM
- TGI (HOP-62 NSCLC): > 100 µM
- TGI (UACC-62 melanoma): > 100 µM
- TGI (OVCAR-8 ovarian): > 100 µM
- TGI (SF-539 CNS): > 100 µM
- TGI (NCI-H226 lung): > 100 µM
- TGI (RXF 393 renal): > 100 µM
- TGI (786-0 renal): > 100 µM
- TGI (CAKI-1 renal): > 100 µM
- TGI (A549 NSCLC): > 100 µM
- TGI (SK-MEL-28 melanoma): > 100 µM
- TGI (M19-MEL melanoma): > 100 µM
- TGI (LOX IMVI melanoma): > 100 µM
- TGI (HT29 colon): > 100 µM
- TGI (DMS 114 small cell lung): > 100 µM
- TGI (XF 498 CNS): > 100 µM
- TGI (LXFL 529 NSCLC): > 100 µM
- TGI (KM12 colon): > 100 µM
- TGI (MALME-3M melanoma): > 100 µM
- TGI (HL-60(TB) leukemia): > 100 µM
- TGI (HCC-2998 colon): > 100 µM
